Measured values reported in US9132138B2, “Method for the treatment of multiple sclerosis” (CASI Pharmaceuticals, Inc., priority 2012, dated 2015).

Columns and labels:
T cells [1] = assay: T cell activation markers CD25 and CD69 by flow cytometry; format: cell-based, C57/BL6 mice; conditions: anti-CD3/28 or PMA/iono
Procedure: (§1) FIGS. 2A-2E, show proliferation and activation of T cells are inhibited by 2ME2. FIG. 2A, CD4^+ T cells were pre-treated with the indicated concentrations of 2ME2 and stimulated with plate-bound anti-CD3/28 or PMA/iono. Proliferation was assayed 24 hours (left) or 48 hours (right) later by 3H-thymidine incorporation. FIG. 2B, CD4^+ and CD8^+ T cells were stimulated with anti-CD3/28 in the presence of increasing concentrations of 2ME2. CD25 expression was assessed at 6 hours or 24 hours post-stimulation by flow cytometry. FIG. 2C, Quantification of CD25 expression in purified CD4^+ T cells pre-treated with increasing concentrations of 2ME2, and stimulated with anti CD3/28 or PMA/iono for 6 or 24 hours. […] Viability was determined 24 hours or 48 hours post-stimulation by flow cytometry. […] Proliferation was determined 24 hours or 48 hours later by 3H-thymidine incorporation. […]
(§2) Purified CD4^+ T cells were stimulated with plate-bound anti-CD3 (clone 2C11, BD, 10 ng/ml) plus anti-CD28 (clone 37.51, BD, 100 ng/ml). […] CD25 and CD69 expression was determined by flow cytometry (FACSCanto II, BD) and analyzed using FloJo software (Treestar Inc). Proliferation was assessed by 3H-thymidine incorporation. Viability and upregulation of cell surface markers on activated T cells were assessed by flow cytometry using Annexin V and propridium iodide. […]

T cells [2] = assay: T cell viability by flow cytometry (Annexin V and propidium iodide); format: cell-based, C57/BL6 mice
Procedure: FIGS. 2A-2E, show proliferation and activation of T cells are inhibited by 2ME2. FIG. 2A, CD4^+ T cells were pre-treated with the indicated concentrations of 2ME2 and stimulated with plate-bound anti-CD3/28 or PMA/iono. Proliferation was assayed 24 hours (left) or 48 hours (right) later by 3H-thymidine incorporation. FIG. 2B, CD4^+ and CD8^+ T cells were stimulated with anti-CD3/28 in the presence of increasing concentrations of 2ME2. CD25 expression was assessed at 6 hours or 24 hours post-stimulation by flow cytometry. FIG. 2C, Quantification of CD25 expression in purified CD4^+ T cells pre-treated with increasing concentrations of 2ME2, and stimulated with anti CD3/28 or PMA/iono for 6 or 24 hours. FIG. 2D, T cells were pretreated with the indicated doses of 2ME2 and left untreated (left) or stimulated using plate-bound anti-CD3/28 (right). Viability was determined 24 hours or 48 hours post-stimulation by flow cytometry. FIG. 2E, human PBMC were activated with anti-human CD3/28 in the presence of increasing concentrations of 2ME2. Proliferation was determined 24 hours or 48 hours later by 3H-thymidine incorporation. Data are mean±SD of triplicate determinations and are representative of three separate donors. For FIG. 2A and FIG. 2E, data shown are the mean±SD of triplicate determinations, and are representative of 3 experiments. For FIG. 2B and FIG. 2C data is representative of two experiments.
(§3) Cells were pre-incubated with various concentrations of 2ME2 (Entremed) or vehicle (DMSO) for 30 minutes at 37° C.
as §2

activated B cells = assay: B cell activation markers CD25 and CD69; format: cell-based, C57/BL6 mice
Procedure: as §3
Purified CD4^+ T cells were stimulated with plate-bound anti-CD3 (clone 2C11, BD, 10 ng/ml) plus anti-CD28 (clone 37.51, BD, 100 ng/ml). Purified B220+ B cells were stimulated with anti-IgM (Jackson, 5 μg/ml), anti-CD40 (clone 3/20, BD, 5 μg/ml) or LPS (Sigma, 20 μg/ml) for the times indicated in FIG. 3. CD25 and CD69 expression was determined by flow cytometry (FACSCanto II, BD) and analyzed using FloJo software (Treestar Inc). Proliferation was assessed by 3H-thymidine incorporation. Viability and upregulation of cell surface markers on activated T cells were assessed by flow cytometry using Annexin V and propridium iodide. Human Peripheral blood mononuclear cells (PBMC) were isolated using Mono-Poly Resolving Medium (MP Biomedical) according to the manufacturer's protocols and activated with anti-CD3 (clone UCHT1) and anti-CD28 (clone CD28.2).

human PBL = assay: Proliferation of human PBMC/PBL activated with anti-CD3/28 (3H-thymidine); format: cell-based; conditions: anti-CD3/28 antibodies, 24 or 48 hours
Procedure: as §1, §2

activated T cells = assay: Quantitative real time PCR of mRNAs in activated T cells; format: cell-based, C57/BL6 mice
Th17 cells = assay: Intracellular cytokine staining of in vitro differentiated Th17 cells; format: cell-based, C57/BL6 mice
[3] = test system: SEB-induced cytokine production; parameters: species or system C57/BL6 mice; conditions: mouse, in vivo
[4] = test system: LPS-induced TNFα production; assay: Serum TNFα in mice injected with LPS; format: in vivo; conditions: 2ME2-pretreated mice injected with LPS
T cells [5] = assay: Immunoblotting of signaling proteins in whole cell lysates of stimulated T cells; format: cell-based, C57/BL6 mice
Procedure: (§4) FIG. 4A, purified T cells pre-treated with 2ME2 (50 μM) were stimulated with PMA/iono for the indicated times. Whole cell lysates were subjected to immunoblotting to detect the indicated proteins. FIG. 4B, nuclear lysates were analyzed by EMSA to detect DNA binding to NF-κB or AP-1. FP, free probe. FIG. 4C, purified T cells or B cells were pre-treated with vehicle (−) or 50 μM 2ME2 (+) and were stimulated with PMA/iono for 30 or 60 minutes (left), or with anti-CD3/28 or anti-IgM/CD40 for 24 hours (right). Nuclear fractions of lymphocytes were analyzed by immunoblotting to detect nuclear translocation of NFATc1. Lamin A, nuclear protein loading control. NS; non-specific band. For FIGS. 4A-4C, data are representative of at least two independent experiments. FIG. 4D, stably transfected NFAT and NF-κB Jurkat luciferase reporter cell lines were preincubated with 2ME2 for 30 minutes, and stimulated via crosslinking of anti-CD3/28 antibodies with goat anti-mouse antibodies (GaM). 5 hours later, secreted luciferase activity indicates relative transcriptional activity. Data is reported as normalized luciferase activity and is representative of 3 independent experiments.
Whole cell lysates of stimulated T cells were immunoblotted with Ab recognizing phospho-protein kinase B (AKT) (Ser473), phospho-JNK (Thr183/Tyr185, p46 and p54 Clone G9, antibody “2”), phospho-ERK (Thr202/Tyr204) or phospho-IκBα (Ser32) (NEB); phospho-JNK (Thr183/Tyr185, p54 pSAPK/JNK, clone G7, antibody “1”) or IκBα(C21) (Santa Cruz); β-tubulin (Millipore) or actin (Sigma). Infrared dye-labeled secondary Ab (anti-rabbit Alexa fluor 680, Invitrogen, and anti-mouse IR800, LICOR) were visualized with the Odyssey® scanner (LICOR).

NF-κB = assay: EMSA of T cell nuclear extracts; format: cell-based, C57/BL6 mice; conditions: 2ME2 50 μM, PMA/iono
Procedure: as §4
Nuclear extracts of T cells stimulated with PMA (10 ng/ml)+calcium ionophore A23187 (iono, Sigma) (50 ng/ml) for 30 or 60 minutes were prepared according to a standard protocol. […]

ERβ = ERβ (Homo sapiens, UniProt Q92731); conditions: cited from earlier work
Chain of ERβ (Q92731 whole entry, species assumed): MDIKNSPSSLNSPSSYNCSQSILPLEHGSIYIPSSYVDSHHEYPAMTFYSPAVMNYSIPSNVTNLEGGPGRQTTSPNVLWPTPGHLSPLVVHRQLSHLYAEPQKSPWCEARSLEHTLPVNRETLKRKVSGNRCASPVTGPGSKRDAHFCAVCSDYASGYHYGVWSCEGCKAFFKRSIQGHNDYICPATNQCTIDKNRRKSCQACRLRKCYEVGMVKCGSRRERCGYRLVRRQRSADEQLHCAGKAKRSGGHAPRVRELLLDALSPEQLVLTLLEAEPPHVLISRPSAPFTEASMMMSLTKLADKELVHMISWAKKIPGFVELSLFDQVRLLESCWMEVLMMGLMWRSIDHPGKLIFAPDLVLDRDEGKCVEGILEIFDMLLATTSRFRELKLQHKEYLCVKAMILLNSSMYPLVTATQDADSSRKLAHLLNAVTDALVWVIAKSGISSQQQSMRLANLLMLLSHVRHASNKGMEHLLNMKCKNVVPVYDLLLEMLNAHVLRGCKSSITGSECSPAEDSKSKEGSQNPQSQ

[6] = T cells activated with anti-CD3/28

## COc1cc2c(cc1O)CC[C@@H]1[C@@H]2CC[C@]2(C)[C@@H](O)CC[C@@H]12 [2ME2, 2-Methoxyestradiol]
T cells [1]
  up-regulation of CD25: blocked up-regulation
  up-regulation of CD69: blocked up-regulation
T cells [2]; 24 hours
  apoptosis in activated T cells: none was apparent
  apoptosis in un-stimulated T cells: only a modest 2ME2-dependent increase in apoptosis
T cells [2]; 48 hours post-stimulation
  viability of activated T cells: reduced viability
Activated B cells
  up-regulation of CD25 in activated B cells: prevented
  up-regulation of CD69 in activated B cells: prevented
Human PBL
  proliferation of human PBL: inhibited in a dose-dependent manner
Activated T cells; 2ME2 50 μM, anti-CD3/28
  induction of CD25 mRNA: decreased the induction
  induction of CD44 mRNA: decreased the induction
  induction of IFNγ mRNA: decreased the induction
  induction of IL-2 mRNA: decreased the induction
  induction of TNFα mRNA: decreased the induction
Activated T cells; 3 hours post stimulation
  mRNA levels of GATA3: normal induction
Activated T cells; after 3 hours and 24 hours anti-CD3/28 stimulation
  up-regulation of IL-17 mRNA: blocking up-regulation
Activated T cells; in response to TCR ligation
  upregulation of IL-4 mRNA: inhibited
Activated T cells; re-stimulation after 5 days activation
  IL-17 production on re-stimulation: blocked
Th17 cells; 50 μM 2ME2, PMA/iono 6 hours, vehicle 23.2%
  Th17 cells positive for IL-17: 7.3%
Th17 cells; PMA/iono 6 hours, vehicle 9.1%
  production of IFNγ in Th17 cells (positive cells): 7.3%
[3]
  serum IL-6: significantly less
  serum TNFα: significantly less
[4]
  serum TNFα levels: no reduction
T cells [5]; 2ME2 50 μM, PMA/iono
  AKT phosphorylation: did not inhibit
  ERK phosphorylation: did not inhibit
  IκBα phosphorylation and degradation: normal
T cells [5]; 2ME2 50 μM, present even in the absence of stimulation
  phosphorylation of JNK 1 and 2: modest hyper-phosphorylation
T cells [5]; [6]
  ERK phosphorylation: did not inhibit
  JNK phosphorylation: did not inhibit
  NF-κB p65 phosphorylation: did not inhibit
NF-κB
  binding of NF-κB to DNA: normal
ERβ
  lower affinity than estradiol for ERβ: 3200 fold
